These results are taken from patent US20150274719A1, “AMINO-SUBSTITUTED IMIDAZO[1,2-A]PYRIDINECARBOXAMIDES AND THEIR USE” (BAYER PHARMA AKTIENGESELLSCHAFT, priority 2012, published 2015).

The assay deals with T1, recombinant guanylate cyclase reporter cell line (Rattus norvegicus, UniProt P19686+P20595).
T1 construct: expressed in transfected cells; host or cells: recombinant reporter cell line
T1 sequence (P19686 1-690): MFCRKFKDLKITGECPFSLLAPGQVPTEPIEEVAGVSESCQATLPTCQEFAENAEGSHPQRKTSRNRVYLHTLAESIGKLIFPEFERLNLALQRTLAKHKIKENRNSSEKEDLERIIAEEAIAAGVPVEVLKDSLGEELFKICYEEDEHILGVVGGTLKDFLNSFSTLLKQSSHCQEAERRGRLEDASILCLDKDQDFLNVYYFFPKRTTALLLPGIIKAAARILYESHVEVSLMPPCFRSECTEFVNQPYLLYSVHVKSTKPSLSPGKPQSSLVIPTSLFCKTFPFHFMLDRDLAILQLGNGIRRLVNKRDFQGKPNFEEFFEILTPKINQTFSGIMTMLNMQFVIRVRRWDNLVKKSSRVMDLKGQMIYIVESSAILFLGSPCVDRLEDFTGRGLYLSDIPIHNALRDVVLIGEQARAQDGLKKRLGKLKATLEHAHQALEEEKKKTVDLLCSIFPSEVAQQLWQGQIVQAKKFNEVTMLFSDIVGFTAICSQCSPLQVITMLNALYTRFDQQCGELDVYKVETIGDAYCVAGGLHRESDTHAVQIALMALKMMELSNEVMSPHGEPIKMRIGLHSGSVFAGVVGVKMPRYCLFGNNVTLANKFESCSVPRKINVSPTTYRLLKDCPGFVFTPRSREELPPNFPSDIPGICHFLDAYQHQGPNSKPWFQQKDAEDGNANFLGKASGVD
T1 sequence (P20595 1-619): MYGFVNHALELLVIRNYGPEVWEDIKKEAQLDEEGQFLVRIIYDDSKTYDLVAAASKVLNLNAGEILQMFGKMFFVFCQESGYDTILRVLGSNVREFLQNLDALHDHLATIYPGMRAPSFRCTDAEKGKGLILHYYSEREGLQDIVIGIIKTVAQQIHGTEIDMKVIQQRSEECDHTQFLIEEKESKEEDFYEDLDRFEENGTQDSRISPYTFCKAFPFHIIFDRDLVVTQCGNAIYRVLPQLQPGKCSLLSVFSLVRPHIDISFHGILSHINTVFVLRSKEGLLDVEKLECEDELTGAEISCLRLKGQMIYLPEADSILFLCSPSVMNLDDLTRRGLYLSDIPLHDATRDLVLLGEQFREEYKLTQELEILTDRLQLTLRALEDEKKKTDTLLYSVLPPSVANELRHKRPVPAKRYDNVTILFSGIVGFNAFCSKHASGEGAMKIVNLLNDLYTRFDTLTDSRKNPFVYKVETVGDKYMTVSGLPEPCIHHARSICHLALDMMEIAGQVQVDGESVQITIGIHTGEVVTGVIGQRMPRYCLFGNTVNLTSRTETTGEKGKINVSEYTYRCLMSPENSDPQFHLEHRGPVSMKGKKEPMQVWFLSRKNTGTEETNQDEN
Briefly: Action on recombinant guanylate cyclase reporter cell line. Format: cell-based. The settings on record: in some cases mean values from individual determinations. The essentials: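 Compounds are tested on whole cells carrying a guanylate cyclase reporter construct. The lowest concentration giving an effect is recorded as the MEC.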
Turning to `Cc1nc2c(OCc3c(F)cccc3F)cccn2c1C(=O)NC(CN)c1ccccc1` (single isomer, unassigned; enantiomer b) [Example 18, ent-N-(2-Amino-1-phenylethyl)-8-[(2,6-difluorobenzyl)oxy]-2-methylimidazo[1,2-a]pyridine-3-carboxamide (Enantiomer B)], the “MEC (minimal effective concentration)” value came to 0.55 µM. Regarding `Cc1nc2c(OCc3c(F)cccc3F)cccn2c1C(=O)NCCN1CCS(=O)(=O)CC1` [Example 131, 8-[(2,6-difluorobenzyl)oxy]-N-[2-(1,1-dioxidothiomorpholin-4-yl)ethyl]-2-methylimidazo[1,2-a]pyridine-3-carboxamide], the “MEC (minimal effective concentration)” value is 3.00 µM. Turning to `Cc1nc2c(OCC3CCCCC3)cccn2c1C(=O)NC(CN)c1ccc(F)c(F)c1` (racemic) [Example 46, rac-N-[2-Amino-1-(3,4-difluorophenyl)ethyl]-8-(cyclohexylmethoxy)-2-methylimidazo[1,2-a]-pyridine-3-carboxamide], the “MEC (minimal effective concentration)” value was found to be 1.00 µM.

`Cc1nc2c(OCc3c(F)cccc3F)cc(Cl)cn2c1C(=O)NC(C)C1CCN(C)CC1` (racemic) [Example 78, rac-6-chloro-8-[(2,6-difluorobenzyl)oxy]-2-methyl-N-[1-(1-methylpiperidin-4-yl)ethyl]-imidazo[1,2-a]pyridine-3-carboxamide]: the “MEC (minimal effective concentration)” value came to 1.00 µM. With `CC=CCC(N)CNC(=O)c1c(C)nc2c(OCc3c(F)cccc3F)cc(C)cn12` (racemic) [Example 406, rac-N-[(4E/Z)-2-aminohex-4-en-1-yl]-8-[(2,6-difluorobenzyl)oxy]-2,6-dimethylimidazo[1,2-a]pyridine-3-carboxamide], the “MEC (minimal effective concentration)” value was found to be 0.10 µM. Regarding `Cc1nc2c(OCc3c(F)cccc3F)cccn2c1C(=O)NC(CN)c1ccc(F)c(F)c1` (racemic) [Example 11, rac-N-[2-Amino-1-(3,4-difluorophenyl)ethyl]-8-[(2,6-difluorobenzyl)oxy]-2-methylimidazo[1,2-a]pyridine-3-carboxamide], the “MEC (minimal effective concentration)” value stood at 0.30 µM. Turning to `COc1cccc(F)c1COc1cc(C)cn2c(C(=O)NCC(C)(C)N)c(C)nc12` [Example 352, N-(2-amino-2-methylpropyl)-8-[(2-fluoro-6-methoxybenzyl)oxy]-2,6-dimethylimidazo[1,2-a]pyridine-3-carboxamide], the “MEC (minimal effective concentration)” value amounted to 3.00 µM.

As for `CCCC(C)(N)CNC(=O)c1c(C)nc2c(OCc3c(F)cccc3F)cc(C)cn12` (single isomer, unassigned) [Example 233, ent-N-(2-Amino-2-methylpentyl)-8-[(2,6-difluorobenzyl)oxy]-2,6-dimethylimidazo[1,2-a]pyridine-3-carboxamide], the “MEC (minimal effective concentration)” value amounted to 0.10 µM. With `Cc1nc2c(OCc3c(F)cccc3F)cccn2c1C(=O)NC(C)[C@@H](C)N` (single isomer, unassigned) [Example 177], the “MEC (minimal effective concentration)” value worked out at 1.00 µM.

As to `COCC(C)(N)CNC(=O)c1c(C)nc2c(OCc3c(F)cccc3F)cc(Cl)cn12` (single isomer, unassigned) [Example 196, ent-N-(2-Amino-3-methoxy-2-methylpropyl)-6-chloro-8-[(2,6-difluorobenzyl)oxy]-2-methylimidazo[1,2-a]pyridine-3-carboxamide], the “MEC (minimal effective concentration)” value is 1.00 µM.

Turning to `Cc1nc2c(OCc3c(F)cccc3F)cccn2c1C(=O)NC1CCN(Cc2ccccc2)C1` (racemic) [Example 85, rac-N-(1-benzylpyrrolidin-3-yl)-8-[(2,6-difluoro-benzyl)oxy]-2-methylimidazo[1,2-a]-pyridine-3-carboxamide], the “MEC (minimal effective concentration)” value came to 1.00 µM. With `Cc1nc2c(OCc3c(F)cccc3F)cccn2c1C(=O)NC(C)[C@@H](C)N` (single isomer, unassigned) [Example 176] the figure was 1.00 µM; with `Cc1cc(OCc2c(F)cccc2F)c2nc(C)c(C(=O)NC3CCNCC3(F)F)n2c1` (racemic) [Example 299, rac-8-[(2,6-difluorobenzyl)oxy]-N-(3,3-difluoropiperidin-4-yl)-2,6-dimethylimidazo[1,2-a]pyridine-3-carboxamide], 0.10 µM; with `Cc1cc(OCc2c(F)cccc2F)c2nc(C)c(C(=O)NC[C@H]3CCCN3)n2c1` [Example 116, 8-[(2,6-difluorobenzyl)oxy]-2,6-dimethyl-N-[(2R)-pyrrolidin-2-ylmethyl]imidazo[1,2-a]-pyridine-3-carboxamide], 3.00 µM. For the compound `Cc1nc2c(OCc3c(F)cccc3F)cccn2c1C(=O)NCC(C(C)C)N(C)C` (single isomer, unassigned; ent-8) [Example 188, ent-8-[(2,6-Difluorobenzyl)oxy]-N-[2-(dimethylamino)-3-methylbutyl]-2-methylimidazo[1,2-a]-pyridine-3-carboxamide], the “MEC (minimal effective concentration)” value turned out to be 1.00 µM.

As to `Cc1nc2c(OCc3c(F)cccc3F)cccn2c1C(=O)NC1CCNc2ccc(F)cc21` (single isomer, unassigned; ent-8) [Example 105, ent-8-[(2,6-difluorobenzyl)oxy]-N-(6-fluoro-1,2,3,4-tetrahydroquinolin-4-yl)-2-methylimidazo[1,2-a]pyridine-3-carboxamide], the “MEC (minimal effective concentration)” value stood at 0.30 µM. Consider `Cc1nc2c(OCc3c(F)cccc3F)cccn2c1C(=O)NCC(N)C(F)(F)F` (single isomer, unassigned) [Example 209, ent-N-(2-Amino-3,3,3-trifluoropropyl)-8-[(2,6-difluorobenzyl)oxy]-2-methylimidazo[1,2-a]-pyridine-3-carboxamide], for which the “MEC (minimal effective concentration)” value came out at 0.30 µM. Turning to `Cc1cc(OCc2c(F)cccc2F)c2nc(C)c(C(=O)NC3CC(N)C3)n2c1` (mixture of isomers) [Example 334, N-(3-aminocyclobutyl)-8-[(2,6-difluorobenzyl)oxy]-2,6-dimethylimidazo[1,2-a]pyridine-3-carboxamide (cis/trans mixture)], the “MEC (minimal effective concentration)” value was found to be 1.00 µM. For the compound `CCCC(C)(N)CNC(=O)c1c(C2CC2)nc2c(OCc3c(F)cccc3F)cc(C)cn12` (stereo not drawn) [Example 322, ent-N-(2-amino-2-methylpentyl)-2-cyclopropyl-8-[(2,6-difluorobenzyl)oxy]-6-methylimidazo[1,2-a]pyridine-3-carboxamide], the “MEC (minimal effective concentration)” value was 0.30 µM. Turning to `Cc1nc2c(OCc3c(F)cccc3F)cc(Cl)cn2c1C(=O)NCC(N)CC(F)(F)F` (single isomer, unassigned) [Example 193, ent-N-(2-Amino-4,4,4-trifluorobutyl)-6-chloro-8-[(2,6-difluorobenzyl)oxy]-2-methylimidazo[1,2-a]pyridine-3-carboxamide], the “MEC (minimal effective concentration)” value turned out to be 1.00 µM. Regarding `Cc1nc2c(OCc3c(F)cccc3F)cccn2c1C(=O)NCC(C)(C)N` [Example 72, N-(2-Amino-2-methylpropyl)-8-[(2,6-difluorobenzyl)oxy]-2-methylimidazo[1,2-a]pyridine-3-carboxamide], the “MEC (minimal effective concentration)” value came to 0.30 µM. As for `Cc1cc(OCc2c(F)cccc2F)c2nc(C)c(C(=O)NCC(N)CC(F)(F)F)n2c1` (single isomer, unassigned) [Example 129, ent-N-(2-Amino-4,4,4-trifluorobutyl)-8-[(2,6-difluorobenzyl)oxy]-2,6-dimethylimidazo[1,2-a]-pyridine-3-carboxamide], the “MEC (minimal effective concentration)” value was 0.10 µM. For the compound `Cc1nc2c(OCc3c(F)cccc3F)cccn2c1C(=O)NCC1NCCc2ccccc21` (racemic) [Example 80, rac-8-[(2,6-difluorobenzyl)oxy]-2-methyl-N-(1,2,3,4-tetrahydroisoquinolin-1-ylmethyl)-imidazo[1,2-a]pyridine-3-carboxamide], the “MEC (minimal effective concentration)” value was found to be 1.00 µM.
